In PubChem BioAssay AID248 (DTP/NCI, 2004):
Toxic doses and inconclusive results are not listed. No stated cut-off is given here; in the data, active means T/C of 150% or more; inactive means T/C below 125%.

Tested on: L1210 leukemia ip in BDF1 mice, survival T/C
Test: NCI In Vivo Anticancer Drug Screen. Data for tumor model L1210 Leukemia (intraperitoneal) in B6D2F1 (BDF1) mice
Conditions: endpoint: mean survival time, higher = longer survival
Summary of the method: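 Tumor cells were implanted, animals were treated, and survival was followed. The result divides the treated measurement by the vehicle-control measurement.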

[1] = dose: 50.0 mg/kg/injection, schedule: Q01DX009 (ip), vehicle: saline with Tween-80
[2] = dose: 100.0 mg/kg/injection, schedule: Q01DX009 (ip), vehicle: Klucel (hydroxypropylcellulose) (HPC)
[3] = dose: 200.0 mg/kg/injection, schedule: Q01DX009 (ip), vehicle: Klucel (hydroxypropylcellulose) (HPC)
[4] = dose: 100.0 mg/kg/injection, schedule: Q04DX003 (ip), vehicle: saline with Tween-80
[5] = dose: 200.0 mg/kg/injection, schedule: Q04DX003 (ip), vehicle: saline with Tween-80
[6] = dose: 400.0 mg/kg/injection, schedule: Q04DX003 (ip), vehicle: saline with Tween-80
[7] = dose: 100.0 mg/kg/injection, schedule: Q01DX009 (ip), vehicle: saline with Tween-80
[8] = dose: 200.0 mg/kg/injection, schedule: Q01DX009 (ip), vehicle: saline with Tween-80
[9] = dose: 100.0 mg/kg/injection, schedule: Q01DX001 (ip), vehicle: saline
[10] = dose: 200.0 mg/kg/injection, schedule: Q01DX001 (ip), vehicle: saline

Measured: T/C

O=[N+]([O-])c1cc(S(=O)(=O)OCC2CO2)ccc1Cl (stereo not given)
inactive: dose: 6.25 mg/kg/injection, schedule: Q04DX003 (ip), vehicle: Klucel (hydroxypropylcellulose) (HPC) 98 % of control | dose: 12.5 mg/kg/injection, schedule: Q01DX009 (ip), vehicle: Klucel (hydroxypropylcellulose) (HPC) 96 % of control | dose: 12.5 mg/kg/injection, schedule: Q04DX003 (ip), vehicle: Klucel (hydroxypropylcellulose) (HPC) 98 % of control | dose: 25.0 mg/kg/injection, schedule: Q01DX009 (ip), vehicle: Klucel (hydroxypropylcellulose) (HPC) 90 % of control | dose: 25.0 mg/kg/injection, schedule: Q04DX003 (ip), vehicle: Klucel (hydroxypropylcellulose) (HPC) 101 % of control | dose: 50.0 mg/kg/injection, schedule: Q04DX003 (ip), vehicle: Klucel (hydroxypropylcellulose) (HPC) 103 % of control

ClCCN(CCCl)c1ccc(C[n+]2ccc3ccccc3c2)cc1
inactive: dose: 8.0 mg/kg/injection, schedule: Q01DX015 (ip), vehicle: carboxymethylcellulose (CMC) 109 % of control | dose: 16.0 mg/kg/injection, schedule: Q01DX015 (ip), vehicle: carboxymethylcellulose (CMC) 113 % of control | dose: 32.0 mg/kg/injection, schedule: Q01DX015 (ip), vehicle: carboxymethylcellulose (CMC) 106 % of control

CCOC(=O)C1CCC(=O)NC1=O (stereo not given)
inactive: dose: 100.0 mg/kg/injection, schedule: Q01DX009 (ip), vehicle: saline 111 % of control | dose: 100.0 mg/kg/injection, schedule: Q04DX003 (ip), vehicle: saline 98 % of control | dose: 200.0 mg/kg/injection, schedule: Q01DX009 (ip), vehicle: saline 108 % of control | dose: 200.0 mg/kg/injection, schedule: Q04DX003 (ip), vehicle: saline 102 % of control | dose: 400.0 mg/kg/injection, schedule: Q01DX009 (ip), vehicle: saline 101 % of control | dose: 400.0 mg/kg/injection, schedule: Q04DX003 (ip), vehicle: saline 104 % of control

Oc1ccccc1C=NCCN=Cc1ccccc1O.[CH3][Sn]([CH3])([Cl])[Cl]
inactive: dose: 12.5 mg/kg/injection, schedule: Q01DX009 (ip), vehicle: saline with Tween-80 102 % of control | dose: 25.0 mg/kg/injection, schedule: Q01DX009 (ip), vehicle: saline with Tween-80 110 % of control | [1] 107 % of control

CC(=O)C(Cl)C(C)=O.CC(=O)CC(C)=O.CC(=O)CC(C)=O.[Rh]
inactive: dose: 50.0 mg/kg/injection, schedule: Q01DX001 (ip), vehicle: other 108 % of control | dose: 100.0 mg/kg/injection, schedule: Q01DX001 (ip), vehicle: other 102 % of control | dose: 200.0 mg/kg/injection, schedule: Q01DX001 (ip), vehicle: other 98 % of control | dose: 400.0 mg/kg/injection, schedule: Q01DX001 (ip), vehicle: other 98 % of control

CC1=C/C(=N/Nc2ccc([N+](=O)[O-])cc2[N+](=O)[O-])CCC1
inactive: dose: 50.0 mg/kg/injection, schedule: Q01DX009 (ip), vehicle: acetone 93 % of control | dose: 100.0 mg/kg/injection, schedule: Q01DX009 (ip), vehicle: acetone 88 % of control | dose: 100.0 mg/kg/injection, schedule: Q04DX003 (ip), vehicle: acetone 93 % of control | dose: 200.0 mg/kg/injection, schedule: Q04DX003 (ip), vehicle: acetone 86 % of control | dose: 400.0 mg/kg/injection, schedule: Q04DX003 (ip), vehicle: acetone 86 % of control

C/C(=N/NC(N)=O)C1CC2CCC1CC2 (stereo not given)
inactive: dose: 50.0 mg/kg/injection, schedule: Q01DX009 (ip), vehicle: Klucel (hydroxypropylcellulose) (HPC) 102 % of control | [2] 93 % of control | [3] 89 % of control

O=C(c1ccccc1)c1cccc([N+](=O)[O-])c1
inactive: [4] 98 % of control | [5] 93 % of control | [6] 89 % of control

CCCCC(=O)N1C(C)CCC1C (stereo not given)
inactive: dose: 100.0 mg/kg/injection, schedule: Q04DX002 (ip), vehicle: saline 105 % of control | dose: 200.0 mg/kg/injection, schedule: Q04DX002 (ip), vehicle: saline 88 % of control

CN(C)/C=C/C(=O)c1ccccc1[N+](=O)[O-]
inactive: [2] 97 % of control | dose: 100.0 mg/kg/injection, schedule: Q04DX003 (ip), vehicle: Klucel (hydroxypropylcellulose) (HPC) 100 % of control | [3] 100 % of control | dose: 200.0 mg/kg/injection, schedule: Q04DX003 (ip), vehicle: Klucel (hydroxypropylcellulose) (HPC) 105 % of control | dose: 400.0 mg/kg/injection, schedule: Q01DX009 (ip), vehicle: Klucel (hydroxypropylcellulose) (HPC) 103 % of control | dose: 400.0 mg/kg/injection, schedule: Q04DX003 (ip), vehicle: Klucel (hydroxypropylcellulose) (HPC) 100 % of control

CN(C)N=Nc1ccc(C(F)(F)F)cc1
inactive: dose: 50.0 mg/kg/injection, schedule: Q01DX001 (ip), vehicle: saline with Tween-80 97 % of control | [1] 94 % of control | dose: 50.0 mg/kg/injection, schedule: Q04DX003 (ip), vehicle: saline with Tween-80 98 % of control | dose: 100.0 mg/kg/injection, schedule: Q01DX001 (ip), vehicle: saline with Tween-80 103 % of control | [7] 94 % of control | [4] 98 % of control | dose: 200.0 mg/kg/injection, schedule: Q01DX001 (ip), vehicle: saline with Tween-80 105 % of control | [8] 97 % of control | [5] 101 % of control | dose: 400.0 mg/kg/injection, schedule: Q01DX001 (ip), vehicle: saline with Tween-80 101 % of control | dose: 400.0 mg/kg/injection, schedule: Q01DX009 (ip), vehicle: saline with Tween-80 98 % of control | [6] 98 % of control

O=C(O)CCCCCC(=O)c1ccccc1
inactive: dose: 100.0 mg/kg/injection, schedule: Q04DX002 (ip), vehicle: Klucel (hydroxypropylcellulose) (HPC) 100 % of control | dose: 200.0 mg/kg/injection, schedule: Q04DX002 (ip), vehicle: Klucel (hydroxypropylcellulose) (HPC) 118 % of control | dose: 400.0 mg/kg/injection, schedule: Q04DX002 (ip), vehicle: Klucel (hydroxypropylcellulose) (HPC) 107 % of control

C=C1CC(CC)C(C)OC1=O (stereo not given)
inactive: [9] 102 % of control | [10] 102 % of control | dose: 400.0 mg/kg/injection, schedule: Q01DX001 (ip), vehicle: saline 98 % of control

N#CC(C#N)=Cc1cc(Cl)ccc1O
inactive: [9] 96 % of control | [10] 96 % of control

CCOC(=O)CC(=O)c1ccc(C(=O)CC(=O)O)cc1 (tested in a mixture with another compound)
inactive: dose: 25.6 mg/kg/injection, schedule: Q04DX002 (ip), vehicle: saline with Tween-80 87 % of control | [1] 89 % of control | dose: 64.0 mg/kg/injection, schedule: Q04DX002 (ip), vehicle: saline with Tween-80 95 % of control | [7] 96 % of control | [4] 90 % of control | dose: 160.0 mg/kg/injection, schedule: Q04DX002 (ip), vehicle: saline with Tween-80 91 % of control | [8] 88 % of control | [5] 87 % of control | dose: 400.0 mg/kg/injection, schedule: Q04DX002 (ip), vehicle: saline with Tween-80 87 % of control
